{"source": "patent US20020025918A1", "about": "“Methods of using helical peptides in plants” (priority 1987, published 2002)", "key": {"[1]": {"test_system": "B-16 myeloma cells", "experiment": "B-16 cell viability, trypan blue exclusion", "format": "cell-based", "settings": "100 μM peptide, one hour", "description": "(§1) B-16 myeloma cells and normal 3T3 […] fibroblasts were either permitted to attach to the test plate, or treated with trypsin to free the cells from the plastic dish prior to treatment. Cells were then treated with 100 μM lytic peptide for one hour as described above, and cell viability was then determined by trypan blue exclusion."}, "[2]": {"experiment": "Role of cytoskeletal structure in susceptibility to lysis, FDD cell viability", "settings": "donkey, primary fetal donkey dermal cells (FDD), % Viability of Treated DD Cells, 100 μM peptide 15 minutes"}, "[3]": {"test_system": "S. aureus", "experiment": "MBC and MIC susceptibility test", "format": "cell-based"}, "[4]": {"test_system": "E. coli", "experiment": "MBC and MIC susceptibility test", "format": "cell-based"}, "[5]": {"experiment": "3T3 fibroblast viability, trypan blue exclusion", "format": "cell-based", "settings": "human, 100 μM peptide, one hour, read-out: % Cell Viability", "description": "as §1"}, "[6]": {"experiment": "Survival of non-infected catfish fingerlings injected with peptide", "format": "in vivo", "settings": "200 μg i.p. once per day for 4 days", "description": "[…] Treatment groups of the fish were then injected intraperitoneally (i.p.) with the lytic peptide LSB-37 dissolved in saline, or a saline control once per day for a period of 4 days."}, "[7]": {"test_system": "P. aeruginosa", "experiment": "MBC and MIC susceptibility test", "format": "cell-based"}, "[8]": {"test_system": "Staph aureus", "experiment": "MIC/MBC, fresh isolates", "format": "cell-based", "settings": "fresh isolate Staph aureus", "text": "(§2) The procedure of example 2 was followed using a variety of freshly isolated bacterial samples."}, "[9]": {"test_system": "Staph Coag neg", "experiment": "MIC/MBC, fresh isolates", "format": "cell-based", "settings": "fresh isolate Staph Coag neg", "text": "as §2"}, "[10]": {"test_system": "Pseudomonas aeruginosa-1", "experiment": "MIC/MBC, fresh isolates", "format": "cell-based", "settings": "fresh isolate Pseudomonas aeruginosa-1", "text": "as §2"}, "[11]": {"test_system": "Morganella morganil", "experiment": "MIC/MBC, fresh isolates", "format": "cell-based", "settings": "fresh isolate Morganella morganil", "text": "as §2"}, "[12]": {"test_system": "Klebsiella pheumoniae", "experiment": "MIC/MBC, fresh isolates", "format": "cell-based", "settings": "fresh isolate Klebsiella pheumoniae", "text": "as §2"}, "[13]": {"test_system": "Citrobacter Freundii", "experiment": "MIC/MBC, fresh isolates", "format": "cell-based", "settings": "fresh isolate Citrobacter Freundii", "text": "as §2"}, "[14]": {"test_system": "Klebsiella pheumoniae-2", "experiment": "MIC/MBC, fresh isolates", "format": "cell-based", "settings": "fresh isolate Klebsiella pheumoniae-2", "text": "as §2"}, "[15]": {"test_system": "Enterobacteria Cloacae", "experiment": "MIC/MBC, fresh isolates", "format": "cell-based", "settings": "fresh isolate Enterobacteria Cloacae", "text": "as §2"}, "[16]": {"test_system": "Enterococcus-3", "experiment": "MIC/MBC, fresh isolates", "format": "cell-based", "settings": "fresh isolate Enterococcus-3", "text": "as §2"}, "[17]": {"test_system": "Enterococcus-1", "experiment": "MIC/MBC, fresh isolates", "format": "cell-based", "settings": "fresh isolate Enterococcus-1", "text": "as §2"}, "[18]": {"test_system": "Acinetobacter Cal Anit", "experiment": "MIC/MBC, fresh isolates", "format": "cell-based", "settings": "fresh isolate Acinetobacter Cal Anit", "text": "as §2"}, "[19]": {"test_system": "Enterococcus-2", "experiment": "MIC/MBC, fresh isolates", "format": "cell-based", "settings": "fresh isolate Enterococcus-2", "text": "as §2"}, "[20]": {"test_system": "Pseudomonas aeruginosa-3", "experiment": "MIC/MBC, fresh isolates", "format": "cell-based", "settings": "fresh isolate Pseudomonas aeruginosa-3", "text": "as §2"}, "[21]": {"test_system": "Citrobacter Diversus", "experiment": "MIC/MBC, fresh isolates", "format": "cell-based", "settings": "fresh isolate Citrobacter Diversus", "text": "as §2"}, "[22]": {"test_system": "Serratia Marcescens", "experiment": "MIC/MBC, fresh isolates", "format": "cell-based", "settings": "fresh isolate Serratia Marcescens", "text": "as §2"}, "[23]": {"test_system": "Pseudomonas aeruginosa-2", "experiment": "MIC/MBC, fresh isolates", "format": "cell-based", "settings": "fresh isolate Pseudomonas aeruginosa-2", "text": "as §2"}, "[24]": {"test_system": "Eschera Coli", "experiment": "MIC/MBC, fresh isolates", "format": "cell-based", "settings": "fresh isolate Eschera Coli", "text": "as §2"}}, "note": "Like-named read-outs stand apart in the source and are kept apart here. Residues, ends and D or L forms follow the SMILES beside them.", "data": [{"smiles": "CC[C@H](C)[C@H](NC(=O)CNC(=O)[C@H](CC(N)=O)NC(=O)[C@H](CCCNC(=N)N)NC(=O)[C@@H](NC(=O)[C@H](CC(N)=O)NC(=O)[C@H](CCCNC(=N)N)NC(=O)CNC(=O)[C@@H](NC(=O)[C@H](CCCCN)NC(=O)[C@H](CCC(=O)O)NC(=O)[C@@H](NC(=O)[C@H](CCCCN)NC(=O)[C@H](CCCCN)NC(=O)[C@H](Cc1ccccc1)NC(=O)[C@@H](NC(=O)[C@H](CCCCN)NC(=O)[C@H](Cc1c[nH]c2ccccc12)NC(=O)[C@H](CCCCN)NC(=O)[C@@H]1CCCN1C(=O)[C@@H](N)CC(C)C)C(C)C)[C@@H](C)CC)C(C)C)[C@@H](C)CC)C(=O)N[C@H](C(=O)N[C@@H](CCCCN)C(=O)N[C@@H](C)C(=O)NCC(=O)N1CCC[C@H]1C(=O)N[C@@H](C)C(=O)N[C@H](C(=O)N[C@@H](C)C(=O)N[C@H](C(=O)N[C@@H](CC(C)C)C(=O)NCC(=O)N[C@@H](CCC(=O)O)C(=O)N[C@@H](C)C(=O)N[C@@H](CCCCN)C(=O)N[C@@H](C)C(=O)N[C@@H](CC(C)C)C(=O)NCC(N)=O)C(C)C)[C@@H](C)CC)C(C)C", "note": "[LSB-37] (H-LPKWKVFKKIEKVGRNIRNGIVKAGPAIAVLGEAKALG-NH2)", "values": [{"measurement": "% Cell Viability", "setting": "[1]; B-16 Monolayer", "value": 78, "unit": "%"}, {"measurement": "% Cell Viability", "setting": "[1]; B-16 Suspension (trypsinized)", "value": 22, "unit": "%"}, {"measurement": "viability at 15 minutes, 100 μM", "setting": "[2]; Cold-treated (4° C.)", "value": 70, "unit": "%"}, {"measurement": "viability at 15 minutes, 100 μM", "setting": "[2]; Warm-treated (37° C.)", "value": 96, "unit": "%"}, {"measurement": "viability at 15 minutes, 100 μM", "setting": "[2]; with colchicine 0.1 μg/ml (cytoskeletal inhibitor), Colchicine-treated (0.1 μg/ml)", "value": 40, "unit": "%"}, {"measurement": "viability at 15 minutes, 100 μM", "setting": "[2]; with cytochalasin D 5 μg/ml (cytoskeletal inhibitor), Cytochalasin D-treated (5 μg/ml)", "value": 32, "unit": "%"}, {"measurement": "antibacterial result of treatment (Table I; MBC)", "setting": "[3]; S. auerus (+)", "value": 64, "unit": "µM"}, {"measurement": "MBC", "setting": "[3]; Table III, S. aureus (+)", "value": 64, "unit": "µM"}, {"measurement": "antibacterial result of treatment (Table I; MBC)", "setting": "[4]", "value": 16, "unit": "µM"}, {"measurement": "MBC", "setting": "[4]; Table III", "value": 2.0, "unit": "µM"}, {"measurement": "viability at 1 h, 100 μM", "setting": "[5]; normal 3T3 human fibroblasts, 3T3 Suspension (trypsinized)", "value": 12, "unit": "%"}, {"measurement": "viability at 1 h, 100 μM", "setting": "[5]; 3T3 Monolayer", "value": 94, "unit": "%"}, {"measurement": "% Survival", "setting": "[6]", "value": 100, "unit": "%"}, {"measurement": "antibacterial result of treatment (Table I; MBC)", "setting": "[7]; P. aeruginosa (−)", "value": 8, "unit": "µM"}, {"measurement": "MBC", "setting": "[7]; Table III, P. aeuriginosa (−)", "value": 3.6, "unit": "µM"}, {"measurement": "MIC", "setting": "[8]", "value": 32, "unit": "µM"}, {"measurement": "MIC", "setting": "[9]", "value": 32, "unit": "µM"}, {"measurement": "MBC", "setting": "[10]", "value": 16, "unit": "µM"}, {"measurement": "MIC", "setting": "[10]", "value": 8, "unit": "µM"}, {"measurement": "MIC", "setting": "[11]", "value": 32, "unit": "µM"}, {"measurement": "MBC", "setting": "[12]", "value": 8, "unit": "µM"}, {"measurement": "MIC", "setting": "[12]", "value": 2, "unit": "µM"}, {"measurement": "MBC", "setting": "[13]", "value": 4, "unit": "µM"}, {"measurement": "MIC", "setting": "[13]", "value": 1, "unit": "µM"}, {"measurement": "MBC", "setting": "[14]", "value": 8, "unit": "µM"}, {"measurement": "MIC", "setting": "[14]", "value": 4, "unit": "µM"}, {"measurement": "MBC", "setting": "[15]", "value": 8, "unit": "µM"}, {"measurement": "MIC", "setting": "[15]", "value": 2, "unit": "µM"}, {"measurement": "MIC", "setting": "[16]", "value": 32, "unit": "µM"}, {"measurement": "MBC", "setting": "[17]", "value": 32, "unit": "µM"}, {"measurement": "MIC", "setting": "[17]", "value": 8, "unit": "µM"}, {"measurement": "MBC", "setting": "[18]", "value": 1, "unit": "µM"}, {"measurement": "MIC", "setting": "[18]", "value": 0.5, "unit": "µM"}, {"measurement": "MIC", "setting": "[19]", "value": 32, "unit": "µM"}, {"measurement": "MBC", "setting": "[20]", "value": 16, "unit": "µM"}, {"measurement": "MIC", "setting": "[20]", "value": 8, "unit": "µM"}, {"measurement": "MBC", "setting": "[21]", "value": 4, "unit": "µM"}, {"measurement": "MIC", "setting": "[21]", "value": 1, "unit": "µM"}, {"measurement": "MIC", "setting": "[22]", "value": 32, "unit": "µM"}, {"measurement": "MBC", "setting": "[23]", "value": 16, "unit": "µM"}, {"measurement": "MIC", "setting": "[23]", "value": 4, "unit": "µM"}, {"measurement": "MBC", "setting": "[24]", "value": 4, "unit": "µM"}, {"measurement": "MIC", "setting": "[24]", "value": 1, "unit": "µM"}]}]}
